In PubChem BioAssay AID292 (DTP/NCI, 2004):
Several values for one entry are separate records, joined by “and”; a condition that tells them apart may be missing. Equal entries are not always repeated. Toxic doses and inconclusive results are not listed.

System: B6C3F1 mice, ip Sarcoma M5076, median survival T/C
Test: NCI In Vivo Anticancer Drug Screen. Data for tumor model Sarcoma M5076 (intraperitoneal) in B6C3F1 mice
Conditions: endpoint: median survival time, schedule: Q04DX004 (ip), higher = longer survival
Summary of the method: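 The readout is a ratio of survival in drug-treated animals to survival in animals given vehicle alone, taken in mice bearing a transplanted tumour line.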

[1] = dose: 37.5 mg/kg/injection, vehicle: saline with Tween-80
[2] = dose: 75.0 mg/kg/injection, vehicle: saline with Tween-80
[3] = dose: 150.0 mg/kg/injection, vehicle: saline with Tween-80
[4] = dose: 300.0 mg/kg/injection, vehicle: saline with Tween-80
[5] = dose: 1.5 mg/kg/injection, vehicle: saline
[6] = dose: 3.0 mg/kg/injection, vehicle: saline
[7] = dose: 50.0 mg/kg/injection, vehicle: Klucel + Tween-80
[8] = dose: 100.0 mg/kg/injection, vehicle: Klucel + Tween-80
[9] = dose: 6.0 mg/kg/injection, vehicle: saline
[10] = dose: 12.0 mg/kg/injection, vehicle: saline
[11] = dose: 50.0 mg/kg/injection, vehicle: Klucel (hydroxypropylcellulose) (HPC)
[12] = dose: 100.0 mg/kg/injection, vehicle: Klucel (hydroxypropylcellulose) (HPC)
[13] = dose: 200.0 mg/kg/injection, vehicle: Klucel (hydroxypropylcellulose) (HPC)
[14] = dose: 400.0 mg/kg/injection, vehicle: Klucel (hydroxypropylcellulose) (HPC)
[15] = dose: 800.0 mg/kg/injection, vehicle: Klucel (hydroxypropylcellulose) (HPC)
[16] = dose: 25.0 mg/kg/injection, vehicle: saline with Tween-80
[17] = dose: 50.0 mg/kg/injection, vehicle: saline with Tween-80
[18] = dose: 100.0 mg/kg/injection, vehicle: saline with Tween-80
[19] = dose: 200.0 mg/kg/injection, vehicle: saline with Tween-80
[20] = dose: 400.0 mg/kg/injection, vehicle: saline with Tween-80

**Q.** For `CC1CC(Nc2ccc(NC3=CC(=O)OC(C)C3)cc2)=CC(=O)O1` (stereo unspecified), which T/C [1] is on record?
**A.** 99 % of control

**Q.** And the T/C [2]?
**A.** 97 % of control

**Q.** And the T/C [3]?
**A.** 94 % of control

**Q.** What about the T/C [4] of the same compound?
**A.** 90 % of control

**Q.** What does the source list for `O=S(=O)(O)C1=CC(=N\Cl)/C=CC/1=N/Cl`?
**A.** T/C [1]: 104 % of control; T/C [2]: 104 % of control; T/C [3]: 106 % of control; T/C [4]: 108 % of control

**Q.** Which T/C (dose: 0.38 mg/kg/injection, vehicle: saline) does the source give for `[Cl][Hg][Cl]` here?
**A.** 93 % of control

**Q.** What about the T/C (dose: 0.39 mg/kg/injection, vehicle: saline) of the same compound?
**A.** 96 % of control

**Q.** And the T/C (dose: 0.75 mg/kg/injection, vehicle: saline)?
**A.** 96 % of control

**Q.** And the T/C (dose: 0.78 mg/kg/injection, vehicle: saline)?
**A.** 86 % of control

**Q.** And the T/C [5]?
**A.** 96 % of control

**Q.** What about the T/C (dose: 1.56 mg/kg/injection, vehicle: saline) of the same compound?
**A.** 87 % of control

**Q.** What about the T/C [6] of the same compound?
**A.** 93 % of control

**Q.** What about the T/C (dose: 3.12 mg/kg/injection, vehicle: saline) of the same compound?
**A.** 87 % of control

**Q.** For `CC(=O)C1C(=O)C(=O)N(c2cc(C)ccc2O)C1=O` (stereo unspecified), which T/C [7] is on record?
**A.** 106 % of control

**Q.** And the T/C [8]?
**A.** 100 % of control

**Q.** Which T/C (dose: 16.25 mg/kg/injection, vehicle: Klucel (hydroxypropylcellulose) (HPC)) does the source give for `NC(C(=O)O)C1=CCCCCC1` (stereo unspecified) here?
**A.** 100 % of control

**Q.** And the T/C (dose: 32.5 mg/kg/injection, vehicle: Klucel (hydroxypropylcellulose) (HPC))?
**A.** 111 % of control

**Q.** And the T/C (dose: 65.0 mg/kg/injection, vehicle: Klucel (hydroxypropylcellulose) (HPC))?
**A.** 104 % of control

**Q.** And the T/C (dose: 130.0 mg/kg/injection, vehicle: Klucel (hydroxypropylcellulose) (HPC))?
**A.** 95 % of control

**Q.** And the T/C (dose: 260.0 mg/kg/injection, vehicle: Klucel (hydroxypropylcellulose) (HPC))?
**A.** 100 % of control

**Q.** Which results are given for `COC(COC(=O)N1CCN(C=O)CC1)C1=C(N2CC2)C(=O)C(C)=C(N2CC2)C1=O` (stereo unspecified)?
**A.** T/C [5]: 124 % of control; T/C [6]: 152 % of control; T/C (dose: 3.6 mg/kg/injection, vehicle: saline): 150 % of control; T/C [9]: 176 % of control and 190 % of control; T/C (dose: 10.0 mg/kg/injection, vehicle: saline): 245 % of control; T/C [10]: 151 % of control

**Q.** Which T/C (dose: 50.0 mg/kg/injection, vehicle: saline) does the source give for `COc1ccc(C[C@H](N)C(=O)NC2C(CO)OC(n3cnc4c(N(C)C)ncnc43)C2O)cc1` (stereo partly specified) here?
**A.** 89 % of control

**Q.** And the T/C (dose: 100.0 mg/kg/injection, vehicle: saline)?
**A.** 117 % of control

**Q.** What about the T/C (dose: 200.0 mg/kg/injection, vehicle: saline) of the same compound?
**A.** 102 % of control

**Q.** What about the T/C (dose: 400.0 mg/kg/injection, vehicle: saline) of the same compound?
**A.** 108 % of control

**Q.** `CCOC(=O)Cn1nc2oc(=O)c(CCN3CCN(c4ccccc4OC)CC3)c(C)c2c1C` was tested. Which T/C [11] did it give?
**A.** 103 % of control

**Q.** What about the T/C [12] of the same compound?
**A.** 103 % of control

**Q.** What about the T/C [13] of the same compound?
**A.** 90 % of control

**Q.** And the T/C [14]?
**A.** 94 % of control

**Q.** What about the T/C [15] of the same compound?
**A.** 89 % of control

**Q.** With `O=C(Nc1cccnc1)c1ccc([N+](=O)[O-])s1` as the compound, how does the T/C [6] read?
**A.** 102 % of control

**Q.** And the T/C [9]?
**A.** 97 % of control

**Q.** What about the T/C [10] of the same compound?
**A.** 96 % of control

**Q.** And the T/C (dose: 24.0 mg/kg/injection, vehicle: saline)?
**A.** 87 % of control

**Q.** What about the T/C (dose: 48.0 mg/kg/injection, vehicle: saline) of the same compound?
**A.** 89 % of control

**Q.** With `C=C(OC)C(Nc1cc(OC)c(OC)cc1C(=O)OC1CC(O[C@@H]2C(=O)C(NC(=O)OC)=C3/C(=C\CSSSC)[C@]2(O)C#C/C=C\C#C[C@@H]3OC2OC(C)C(NOC3CC(O)C(SC)C(C)O3)C(O)C2OC2CC(OC)C(NCCC)CO2)OC(C)C1O)OC` (stereo partly specified) as the compound, how does the T/C (dose: 0.32 micrograms/kg/injection, vehicle: saline + alcohol) read?
**A.** 152 % of control

**Q.** What about the T/C (dose: 1.28 micrograms/kg/injection, vehicle: saline + alcohol) of the same compound?
**A.** 156 % of control

**Q.** For `CN(C)CN1C(=O)S/C(=C2\C(=O)N(CN(C)C)c3ccccc32)C1=O`, which T/C [11] is on record?
**A.** 102 % of control

**Q.** What about the T/C [12] of the same compound?
**A.** 90 % of control

**Q.** What about the T/C [13] of the same compound?
**A.** 90 % of control

**Q.** `Cn1c(=O)ccc2c1nc1ccccc1[n+]2[O-]` was tested. Which T/C (dose: 12.5 mg/kg/injection, vehicle: saline with Tween-80) did it give?
**A.** 98 % of control

**Q.** What about the T/C [16] of the same compound?
**A.** 99 % of control

**Q.** What about the T/C [17] of the same compound?
**A.** 103 % of control

**Q.** What about the T/C [18] of the same compound?
**A.** 99 % of control

**Q.** What about the T/C [19] of the same compound?
**A.** 94 % of control

**Q.** Which T/C [17] does the source give for `Cc1c(C(=N)C(C#N)C#N)c(=N)oc2c1ccc1ccccc12` here?
**A.** 96 % of control

**Q.** What about the T/C [18] of the same compound?
**A.** 96 % of control

**Q.** What about the T/C [19] of the same compound?
**A.** 92 % of control

**Q.** And the T/C [20]?
**A.** 94 % of control

**Q.** And the T/C (dose: 800.0 mg/kg/injection, vehicle: saline with Tween-80)?
**A.** 93 % of control

**Q.** With `CCOC(=O)NC1CCc2cc(OC)c(OC)c(OC)c2-c2ccc(OC)c(=O)cc21` (stereo unspecified) as the compound, how does the T/C (dose: 2.5 mg/kg/injection, vehicle: Klucel (hydroxypropylcellulose) (HPC)) read?
**A.** 150 % of control

**Q.** What about the T/C (dose: 5.0 mg/kg/injection, vehicle: Klucel (hydroxypropylcellulose) (HPC)) of the same compound?
**A.** 183 % of control

**Q.** And the T/C (dose: 10.0 mg/kg/injection, vehicle: Klucel (hydroxypropylcellulose) (HPC))?
**A.** 176 % of control

**Q.** And the T/C (dose: 20.0 mg/kg/injection, vehicle: Klucel (hydroxypropylcellulose) (HPC))?
**A.** 161 % of control and 178 % of control

**Q.** For `CN(C)CCNc1ccc(CO)c2sc3ccc(O)cc3c(=O)c12`, which T/C [17] is on record?
**A.** 155 % of control

**Q.** What about the T/C [18] of the same compound?
**A.** 119 % of control

**Q.** What about the T/C [20] of the same compound?
**A.** 158 % of control

**Q.** What does the source list for `Cc1ccc(C(=Nc2ccccc2)N=P(c2ccccc2)(c2ccccc2)c2ccccc2)cc1`?
**A.** T/C [16]: 106 % of control; T/C [17]: 93 % of control

**Q.** How did the T/C [7] turn out when `CCN(CC)C(=Nc1ccc(Cl)c(Cl)c1)SC(NC=O)=C(Cl)Cl` was run?
**A.** 104 % of control

**Q.** And the T/C [8]?
**A.** 97 % of control

**Q.** What about the T/C (dose: 200.0 mg/kg/injection, vehicle: Klucel + Tween-80) of the same compound?
**A.** 91 % of control

**Q.** With `CN(C)CCN1C(=O)c2cccc3cc(N)cc(c23)C1=O` as the compound, how does the T/C (dose: 12.96 mg/kg/injection, vehicle: acid diluted with saline) read?
**A.** 108 % of control and 117 % of control

**Q.** What about the T/C (dose: 21.6 mg/kg/injection, vehicle: acid diluted with saline) of the same compound?
**A.** 159 % of control

**Q.** What about the T/C (dose: 36.0 mg/kg/injection, vehicle: acid diluted with saline) of the same compound?
**A.** 158 % of control

**Q.** What does the source list for `Cc1nnc2c3nccnc3c(Cl)nn12`?
**A.** T/C (dose: 15.0 mg/kg/injection, vehicle: saline with Tween-80): 102 % of control; T/C (dose: 30.0 mg/kg/injection, vehicle: saline with Tween-80): 98 % of control; T/C (dose: 60.0 mg/kg/injection, vehicle: saline with Tween-80): 101 % of control; T/C (dose: 120.0 mg/kg/injection, vehicle: saline with Tween-80): 108 % of control

**Q.** Which results are given for `c1ccc([Te][Te]c2ccccc2)cc1`?
**A.** T/C (dose: 18.75 mg/kg/injection, vehicle: saline with Tween-80): 106 % of control; T/C [1]: 100 % of control; T/C [2]: 98 % of control

**Q.** For `CCC1OCC(C(Cl)CCl)O1` (stereo unspecified), which T/C [17] is on record?
**A.** 100 % of control

**Q.** And the T/C [18]?
**A.** 97 % of control

**Q.** And the T/C [19]?
**A.** 93 % of control

**Q.** `Cn1c([N+](=O)[O-])cnc1CSc1ccc(C#N)cc1` was tested. Which T/C [11] did it give?
**A.** 96 % of control

**Q.** What about the T/C [12] of the same compound?
**A.** 93 % of control

**Q.** What about the T/C [13] of the same compound?
**A.** 102 % of control

**Q.** What about the T/C [14] of the same compound?
**A.** 94 % of control

**Q.** What about the T/C [15] of the same compound?
**A.** 91 % of control

**Q.** What does the source list for `O=C1[C@@H]2C3C=CC([C@H]4C(=O)N(CO)C(=O)[C@@H]34)[C@@H]2C(=O)N1CO`?
**A.** T/C [12]: 102 % of control; T/C [13]: 102 % of control; T/C [14]: 98 % of control

**Q.** With `CC(=O)NCCSSCCCCS(=O)O` as the compound, how does the T/C (dose: 37.5 mg/kg/injection, vehicle: saline) read?
**A.** 99 % of control

**Q.** What about the T/C (dose: 75.0 mg/kg/injection, vehicle: saline) of the same compound?
**A.** 98 % of control

**Q.** What about the T/C (dose: 150.0 mg/kg/injection, vehicle: saline) of the same compound?
**A.** 100 % of control

**Q.** What about the T/C (dose: 300.0 mg/kg/injection, vehicle: saline) of the same compound?
**A.** 97 % of control

**Q.** And the T/C (dose: 600.0 mg/kg/injection, vehicle: saline)?
**A.** 104 % of control
